In general, IC50 refers to the midpoint of a concentration-inhibition curve.

Counter-ions that a name gives are not always drawn.

In one experiment the test system is male Sprague-Dawley rats. Nature of the experiment: Rat dural plasma protein extravasation (PPE) model. It is filed as in vivo. As to conditions: i.v. (tail-vein injection), 60 min before trigeminal ganglion stimulation; dose that gives an extravasation ratio of approximately 1. The procedure: Rat Dural Plasma Protein Extravasation (PPE) Model
Prepare 100 μg/ml stock solution of test compound in a DMSO/saline (20%/80% v/v) solution and make subsequent dilutions with saline. Dose male Sprague-Dawley rats from Harlan Laboratories (250-350 g) with test compound or saline vehicle by oral gavage (2 mL/kg) or intravenous tail-vein injection (1 mL/kg) 45 minutes prior to administration of anesthesia and placement in a stereotaxic frame for implantation of stimulating electrodes. The rats dosed via the oral route are fasted overnight prior to dosing. Fifteen minutes prior to trigeminal ganglion stimulation, the rats are anesthetized with Nembutal (60 mg/kg, ip.) and placed in a stereotaxic frame (David Kopf Instruments) with the incisor bar set at −2.5 mm. […]
A fluorescence microscope (Zeiss) equipped with a grating monochromator and a spectrophotometer is used to quantify the amount of FITC-BSA dye in each dural sample. […] This facilitates the computer-controlled movement of the stage, with fluorescence measurements at 25 points (500 μm steps) on each dural sample. […] The extravasation ratio (i.e. the ratio of the amount of extravasation in the dura from the stimulated side compared to the unstimulated side) is calculated. […]
With `Clc1ccc(CN[C@H]2CCN(c3ncc(Br)cn3)C2)c(Cl)c1` [Example 28, (S)-[1-(5-Bromopyrimidin-2-yl)-pyrrolidin-3-yl]-(2,4-dichlorobenzyl)-amine], the “ID100 (μg/mL) i.v.” value turned out to be 3 µg/mL.

The experiment is the same for the next values; noted with them: p.o. (oral gavage), 60 min before trigeminal ganglion stimulation; dose that gives an extravasation ratio of approximately 1.
On to `Clc1ccc(CN[C@H]2CCN(c3ncc(Br)cn3)C2)c(Cl)c1` [Example 28, (S)-[1-(5-Bromopyrimidin-2-yl)-pyrrolidin-3-yl]-(2,4-dichlorobenzyl)-amine], for which the “ID100 (μg/mL) p.o.” value was 3 µg/mL.

The target in another experiment is T1, human mGluR3 (Homo sapiens, UniProt Q14832).
T1 construct: expressed in transfected cells; host or cells: AV12 cells (adenovirus-transformed Syrian hamster cell line) stably expressing RGT and GLT, co-transfected with Galpha15
T1 sequence (Q14832 23-879): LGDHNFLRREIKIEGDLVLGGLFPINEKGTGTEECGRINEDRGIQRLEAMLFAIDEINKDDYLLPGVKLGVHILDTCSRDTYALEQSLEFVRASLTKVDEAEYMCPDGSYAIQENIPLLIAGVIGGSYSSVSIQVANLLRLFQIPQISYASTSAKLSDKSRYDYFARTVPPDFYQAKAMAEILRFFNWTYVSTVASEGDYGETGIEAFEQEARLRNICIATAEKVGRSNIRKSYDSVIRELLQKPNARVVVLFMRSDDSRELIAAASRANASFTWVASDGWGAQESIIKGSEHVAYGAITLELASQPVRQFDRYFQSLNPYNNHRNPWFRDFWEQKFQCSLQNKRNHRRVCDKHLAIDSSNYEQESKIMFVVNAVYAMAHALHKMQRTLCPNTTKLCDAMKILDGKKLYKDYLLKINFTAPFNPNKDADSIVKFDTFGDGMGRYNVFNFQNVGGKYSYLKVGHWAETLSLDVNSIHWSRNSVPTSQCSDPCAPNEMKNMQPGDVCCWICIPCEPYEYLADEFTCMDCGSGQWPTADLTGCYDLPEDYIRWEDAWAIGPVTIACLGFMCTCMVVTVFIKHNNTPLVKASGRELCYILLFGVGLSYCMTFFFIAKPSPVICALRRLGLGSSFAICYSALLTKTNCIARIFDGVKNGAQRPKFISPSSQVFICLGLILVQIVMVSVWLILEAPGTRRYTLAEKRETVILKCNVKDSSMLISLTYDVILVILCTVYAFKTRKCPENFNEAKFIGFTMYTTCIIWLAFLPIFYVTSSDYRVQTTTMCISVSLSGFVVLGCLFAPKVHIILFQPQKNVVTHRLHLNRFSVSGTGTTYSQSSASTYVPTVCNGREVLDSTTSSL
The experiment in a line: Antagonism of glutamate-induced increase in intracellular calcium (FLIPR) in mGluR3-expressing AV12 cells. It is filed as cell-based. The settings on record: antagonism of 50 μM glutamate-induced calcium response, AV12 cells expressing human mGluR3 and Gα15, Fluo-3AM. The procedure: Antagonism of Glutamate-Induced Increase in Intracellular Calcium with a mGluRs Expressing Cell Line
Introduce human mGluR3 and the promiscuous G-protein, Galpha15 (Gα15) into AV12 cells (an adenovirus-transformed Syrian hamster cell line) that stably express RGT (Rat Glutamate Transporter) and GLT (Glutamate Like Transporter). Maintain the expression of these four exogenous genes by culturing the cells in DMEM (Gibco, 11960-051) supplemented with 5% dialyzed fetal bovine serum, 2 mM glutamine, 1 mM sodium pyruvate, 10 mM HEPES, 100 μg/mL G418, 1 μg/mL puromycin, 1 μg/mL blastocidin, and 100 μg/mL zeocin. Passage confluent cultures weekly. The expression of Gα15 allows the change of the signaling pathway of the mGlu3 receptor to one that can be easily monitored through the release of intracellular calcium before and after the addition of drugs on a Fluorometric Imaging Plate Reader (i.e. FLIPR, Molecular Devices). Use the following buffers throughout as the Assay Buffer: HBSS (BioWhittaker, 10-527F) supplemented with 20 mM HEPES (Biowhittaker, 17-737E) at pH 7.4. Prepare a stock solution of 4 mM Fluo-3AM (Molecular Probes, F-1241), a calcium sensitive dye by adding 2.21 mL of 20% pluronate in DMSO to a vial containing 10 mg of Fluo-3AM. Sonicate the solution for 30 minutes to facilitate solubilization of the Fluo-3AM and then store at −20° C. Prepare the working solution of 8 μM Fluo-3AM by diluting the stock Fluo-3AM (4 mM) 500-fold into Assay Buffer. Harvest cells 24 h prior to assay using Hank's based cell dissociation solution (Specialty Media, a division of Cell & Molecular Technologies, S-004-B) and plate at a density of 50,000 cells per well in a 96-well poly-D-lysine treated black walled, clear bottom plate (Becton Dickinson, 356640). Incubate cells with 8 μM Fluo-3AM (50 μL per well) for 2 hours at 25° C. Following the dye-loading of the cells, remove the 8 μM Fluo-3AM and replace with Assay Buffer pre-warmed to 37° C. (50 μL per well). Ready the cells for assay on the FLIPR. Set the stage of the FLIPR to 34.5° C. prior to initiation of the assay. Perform a two addition FLIPR assay. Pre-warm the reagents for both additions (compounds and glutamate) to 37° C. prior to initiation of the assay. Add the test compound to the cell plate (50 μL per well) after taking an initial fluorescent read of the cell plate for 10 seconds. Test compounds in a 10 point concentration response curve starting at a final concentration on the cells of 12.5 μM with 3-fold dilutions in Assay Buffer/1.25% DMSO. Collect data every second for the first 30 seconds and then every 3 seconds until the second addition made at 2 minutes. Perform the second addition of 100 μM glutamate in Assay Buffer (100 μL per well for a final glutamate concentration of 50 μM on the cells) 2 minutes after the addition of compound. Collect the second addition data every second for 30 seconds and then every 3 seconds until the end of the run at total time of 3.25 minutes. Measure the response as maximal peak height in Relative Fluorescent Units (RFUs). Define the assay window as the maximal response obtained by 50 μM glutamate minus the response obtained by buffer alone. Express the results as a percent of the assay window.
(In general: A change in cytosolic calcium serves as a functional read-out for many receptors and channels.)
`O=[N+]([O-])c1ccc(N2CC[C@H](NCc3ccc(Cl)cc3Cl)C2)nc1` [Example 1, (S)-(2,4-Dichlorobenzyl)-[1-(5-nitropyridin-2-yl)-pyrrolidin-3-yl]-amine]: the IC50 amounted to 0.191 µM.

As to `CC(=O)c1ccc(N2CC[C@H](NCc3ccc(Cl)cc3Cl)C2)s1` [Example 6, (S)-1-{5-[3-(2,4-Dichlorobenzylamino)-pyrrolidin-1-yl]-thiophen-2-yl}-ethanone], the IC50 is 3.91 µM.

`Clc1ccc(CN[C@H]2CCN(c3ccc(I)cn3)C2)c(Cl)c1` [Example 23, (S)-(2,4-Dichlorobenzyl)-[1-(5-iodopyridin-2-yl)-pyrrolidin-3-yl]-amine hydrochloride]: the IC50 worked out at 0.607 µM.

For `Clc1ccc(CN[C@H]2CCN(c3ncc(Br)cn3)C2)c(Cl)c1` [Example 28, (S)-[1-(5-Bromopyrimidin-2-yl)-pyrrolidin-3-yl]-(2,4-dichlorobenzyl)-amine], the IC50 was 0.34 µM.

Take `Fc1ccc(N2CC[C@H](NCc3ccccc3I)C2)cn1` [Example 59, (S)-[1-(6-Fluoropyridin-3-yl)-pyrrolidin-3-yl]-(2-iodobenzyl)-amine hydrochloride]: the IC50 was determined as 5.78 µM.

Regarding `C#Cc1ccc(N2CC[C@H](NCc3ccc(Cl)cc3Cl)C2)nc1` [Example 87, (S)-(2,4-Dichlorobenzyl)-[1-(5-ethynylpyridin-2-yl)-pyrrolidin-3-yl]-amine], the IC50 worked out at 0.143 µM.

For the compound `FC1CN(c2ncc(Br)cn2)CC1NCc1ccc(Cl)cc1Cl` (centres unmarked) [Example 101, [1-(5 -Bromopyrimidin-2-yl)-4-fluoropyrrolidin-3-yl]-(2,4-dichlorobenzyl)-amine hydrochloride], the IC50 was determined as 4.93 µM.

As to `Clc1ccc(CN[C@H]2CCN(c3ccc(-c4ccccc4)cn3)C2)c(Cl)c1` [Example 108, (S)-(2,4-Dichlorobenzyl)-[1-(5-phenylpyridin-2-yl)-pyrrolidin-3-yl]-amine], the IC50 is 2.27 µM.

As to `FC(F)(F)c1ccc(CN[C@H]2CCN(c3ncc(Br)cn3)C2)c(Cl)c1` [Example 112, (3S)-[1-(5-Bromopyrimidin-2-yl)-pyrrolidin-3-yl]-(2-chloro-4-trifluoromethylbenzyl)-amine], the IC50 worked out at 1.65 µM.

For `O=C1CN(c2ncc(Br)cn2)CC1NCc1ccc(Cl)cc1Cl` (centres unmarked) [Example 121, 1-(5-Bromopyrimidin-2-yl)-4-(2,4-dichlorobenzylamino)-pyrrolidin-3-one], the IC50 came out at 1.68 µM.

On to `N#Cc1cnc(N2CC[C@H](NCc3ccc(Cl)cc3Cl)C2)nc1` [Example 123, (S)-2-[3-(2,4-Dichlorobenzylamino)-pyrrolidin-1-yl]-pyrimidine-5-carbonitrile], for which the IC50 was determined as 1.18 µM.

As for `Clc1cnc(N2CC[C@H](NCc3ccc(Cl)cc3Cl)C2)nc1` [Example 134, (S)-[1-(5-Chloropyrimidin-2-yl)-pyrrolidin-3-yl]-(2,4-dichlorobenzyl)-amine], the IC50 was determined as 0.077 µM.

The values are drawn from US7868014B2, “1-(hetero)aryl-3-amino-pyrrolidine derivatives for use as mGluR3 antagonists” (Eli Lilly and Company, priority 2004, dated 2011).
